Columns and labels:
Vibrio cholerae = assay: Hemolytic activity of Vibrio cholerae supernatant on horse blood agar; conditions: 20 μM, 37° C., 24 hours
Protocol: Vibrio cholerae supernatant when treated with DMSO was dotted in horse blood agar medium and cultured at 37° C. for 24 hours.

HlyU [1] = target: T1, HlyU (Vibrio vulnificus, UniProt A0A3Q0L222); assay: Mass spectrometry / X-ray crystallography of HlyU protein treated with CM2660; type: binding
T1 sequence (A0A3Q0L222 1-98): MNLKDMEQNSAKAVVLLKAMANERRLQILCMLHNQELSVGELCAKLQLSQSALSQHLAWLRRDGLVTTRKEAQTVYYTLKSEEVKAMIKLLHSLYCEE
Protocol: In order to more accurately identify the HlyU inhibition mechanism of CM2660, the crystal structure of CM2660-treated HlyU protein was detected by X-ray crystallography and compared with that of the HlyU protein not treated with CM2660 (FIG. 17, FIG. 18).
In order to identify this in more detail, samples of HlyU protein treated with CM2660 were analyzed using mass spectrometry.

hlyA and tlh = assay: qRT-PCR of hemolytic protein genes in Vibrio cholerae; conditions: 20 μM, A600=0.5, vs 2% DMSO
rtxA, vvhA and plpA = assay: qRT-PCR of virulence genes activated by HlyU in Vibrio vulnificus; type: cell-based; conditions: 20 μM
Protocol: The effect of CM2660 on the expression of rtxA, vvhA and plpA, the virulence genes of Vibrio vulnificus activated by HlyU, was investigated. […] Then, the culture solution were sampled at the time at which the expression of each gene was mainly controlled by HlyU (A600=0.5 for rtxA and vvhA, and A600=1.0 for plpA), RNA was purified, and quantitative real-time polymerase chain reaction (quantitative Real-Time (qRT)-PCR) was performed (FIGS. 10 to 12).

[2] = tested on: exsA, va11668, vopQ, vopS and vopR; assay: qRT-PCR of exsA and T3SS genes in Vibrio alginolyticus; type: cell-based; conditions: 20 μM, A600=0.5, vs 2% DMSO
Protocol: Vibrio alginolyticus is also a pathogenic Vibrio bacterium that has T3SS and is cytotoxic, similar to Vibrio parahaemolyticus. In order to determine the toxin inhibition effect of CM2660 in Vibrio alginolyticus, Vibrio alginolyticus was cultured in TSB (tryptic soy broth) medium supplemented with 1% NaCl.

[3] = tested on: exsA, vp1668, vopQ, vopS and vopR; assay: qRT-PCR of exsA and T3SS-1 genes in Vibrio parahaemolyticus; type: cell-based; conditions: 20 μM, DMEM, vs 2% DMSO
From the text: In V. parahaemolyticus, HlyU is known to activate the gene expression of the master transcriptional regulator, exsA of type III secretion system-1 (T3SS-1), which causes cytotoxicity. In order to determine whether or not CM2660 reduces the expression of the exsA gene by inhibiting HlyU of V. parahaemolyticus, virulence gene expression of V. parahaemolyticus was investigated using the same method as in (2) of Experimental Example 1.
In order to induce the T3SS-1 gene expression of Vibrio parahaemolyticus, Vibrio parahaemolyticus was cultured in Dulbecco's Modified Eagle Medium (DMEM) medium.
Meanwhile, since ExsA activates the expression of the T3SS-1 gene of Vibrio parahaemolyticus, T3SS-1 gene expression was detected using the same sample to determine whether or not the expression of exsA leads to a decrease in T3SS-1 gene expression (FIG. 24).

Vibrio parahaemolyticus = assay: Cytotoxicity of Vibrio parahaemolyticus; type: cell-based; conditions: CM2660 at different concentrations
Vibrio vulnificus [4] = assay: Hemolytic activity of Vibrio vulnificus against erythrocytes; type: cell-based; conditions: culture supernatant at A600=1.0, different concentrations
Protocol: Meanwhile, the effect of CM2660 on the hemolytic activity against erythrocytes of Vibrio vulnificus was investigated. For this purpose, Vibrio vulnificus was cultured at 30° C. and treated with CM2660 at different concentrations at A600=0.2. […] The filtered supernatant was concentrated and mixed with erythrocytes diluted to 10% in PBS and cultured at 37° C. Hemolytic activity against erythrocytes was quantified by measuring absorbance at 540 nm (A540). A sample completely dissolved by treatment with 5% Triton X-100 instead of the supernatant was used as a positive control group and a sample using LBS medium was used as a negative control group.
Hemolytic activity was calculated using the following Equation 2, and is shown as a percentage (%) in FIG. 14.

[5] = In-vivo toxicity of CM2660 injected alone; conditions: subcutaneous, ICR female mice
Protocol: In order to determine whether or not CM2660 also decreases the virulence of Vibrio vulnificus in vivo using 7-week-old ICR female mice, Vibrio vulnificus cultured at A600=0.5 at 30° C. was prepared. This was mixed with DMSO (10%) or CM2660 (1.4 mg/kg of mouse body weight) and the resulting mixture was subcutaneously injected into the back of mice anesthetized with isoflurane. In addition, only CM2660 was injected subcutaneously in order to determine the in-vivo toxicity of CM2660 (FIG. 22). FIG. 22 is a graph showing the results of observation of the expression of in-vivo toxicity of Vibrio vulnificus after injecting CM2660 into mice.

Vibrio vulnificus [6] = assay: Cytotoxicity of Vibrio vulnificus to INT-407 cells (LDH activity); type: cell-based; conditions: MOI 10, 2.5 hours, various concentrations
Protocol: Vibrio vulnificus cultured to A600=0.5 at 30° C. was treated with various concentrations of CM2660 or DMSO (control group) and infected into INT-407 cells prepared in 96-well assay plates at multiplicity of infection (MOI) of 10 for 2.5 hours. Then, the 96-well assay plates were centrifuged to separate INT-407 cells, and the supernatant and the lactate dehydrogenase (LDH) activity in the supernatant was measured to determine the occurrence of virulence (FIG. 13).

HlyU [7] = target: T1, HlyU; assay: Electrophoretic mobility shift assay (EMSA), HlyU binding to rtxA promoter DNA
Protocol: In order to investigate the effect of CM2660 on the DNA-binding capability of the HlyU protein, electrophoretic mobility shift assay (EMSA) experiments were performed using DNA at the known HlyU-binding rtxA promoter site.
The promoter site of the rtxA gene was amplified by PCR using ^32P-labeled primer, PrtxA-R (5′-[…]-3′) and unlabeled primer PrtxA-F (5′-[…]-3′). This DNA probe was reacted with 50 nM or 100 nM HlyU, 100 μM CM2660 or DMSO in reaction buffer (10 mM Tris-Cl, 50 mM KCl, 5 mM MgCl2, 0.75 mM DTT and 5% glycerol, 0.1 μg poly(dl-dC)) at 25° C. for 30 minutes.
The DNA-HlyU complex was electrophoresed on a polyacrylamide gel and phosphoimaged through Typhoon FLA7000 to determine the band position (FIG. 15, FIG. 16).

**Q.** Which results are given for O=C(C#Cc1ccccc1)Nc1scc2c1c(=O)oc1ccccc12 [CM2660, N-(4-oxo-4H-thieno[3,4-c]chromen-3-yl)-3-phenylprop-2-ynamide]?
**A.** hemolytic activity of Vibrio cholerae (clear zone) (Vibrio cholerae): reduced; covalent binding to cysteine residue at position 30 of HlyU (HlyU [1]): covalently bound; hlyA mRNA level (hlyA and tlh): significantly reduced; tlh mRNA level (hlyA and tlh): significantly reduced; rtxA mRNA level (rtxA, vvhA and plpA; A600=0.5, vs 2% DMSO): significantly reduced; vvhA mRNA level (rtxA, vvhA and plpA; A600=0.5, vs 2% DMSO): significantly reduced; plpA mRNA level (rtxA, vvhA and plpA; A600=1.0, vs 2% DMSO): significantly reduced; exsA mRNA level [2]: significantly reduced; va11668 mRNA level [2]: significantly reduced; vopQ mRNA level [2]: significantly reduced; vopR mRNA level [2]: significantly reduced; vopS mRNA level [2]: significantly reduced; exsA mRNA level [3]: significantly decreased; vopQ mRNA level [3]: decreased significantly; vopR mRNA level [3]: decreased significantly; vopS mRNA level [3]: decreased significantly; vp1668 mRNA level [3]: decreased significantly; cytotoxicity of Vibrio parahaemolyticus (Vibrio parahaemolyticus): decrease in the cytotoxicity; hemolytic activity against erythrocytes (Vibrio vulnificus [4]): concentration-dependent decrease; in-vivo toxicity (survival after CM2660 alone) [5]: did not show in-vivo toxicity; virulence (cytotoxicity) occurrence of Vibrio vulnificus (Vibrio vulnificus [6]): concentration-dependent decrease; DNA-binding capability of HlyU (HlyU [7]; 100 μM compound, 50 nM or 100 nM HlyU, 25° C., 30 minutes): significantly decreased; DNA-binding capability of HlyU, concentration dependence (HlyU [7]; CM2660 at different concentrations): decrease became greater as the concentration of CM2660 increased

From patent US11510899B2, “RTX toxin production inhibitor and composition for treating symptom of vibrio infection by using same” (priority 2018, dated 2022)
